According to US8829007B2 (priority 2009, dated 2014):

These compounds were tested on influenza A virus (A/PR/8/34) (assay: microbe, parasite or virus in culture). Conditions: Influenza A virus, PR/8, MDCK, MDCK cells infected with A/PR/8/34, cell protection (CPE); read-out: IC50 (mean all).
Format: cell-based

SMILES | IC50 [µM]
CC(C)(C)CC(=O)N1CCC[C@@H](CNc2nc(-c3c[nH]c4ncc(Cl)cc34)ncc2F)C1 [Compound 42, (S)-1-(3-((2-(5-chloro-1H-pyrrolo[2,3-b]pyridin-3-yl)-5-fluoropyrimidin-4-ylamino)methyl)piperidin-1-yl)-3,3-dimethylbutan-1-one] | > 20
C[N+](C)(C)CC(=O)N1CCC[C@@H](CNc2nc(-c3c[nH]c4ncc(Cl)cc34)ncc2F)C1 [Compound 43, (S)-2-(3-((2-(5-chloro-1H-pyrrolo[2,3-b]pyridin-3-yl)-5-fluoropyrimidin-4-ylamino)methyl)piperidin-1-yl)-N,N,N-trimethyl-2-oxoethanaminium] | > 20
CN(C)CC(=O)N1CCC[C@@H](CNc2nc(-c3c[nH]c4ncc(Cl)cc34)ncc2F)C1 [Compound 46, (S)-1-(3-((2-(5-chloro-1H-pyrrolo[2,3-b]pyridin-3-yl)-5-fluoropyrimidin-4-ylamino)methyl)piperidin-1-yl)-2-(dimethylamino)ethanone] | > 20
O=C(Cn1cnnn1)N1CCC[C@@H](CNc2nc(-c3c[nH]c4ncc(Cl)cc34)ncc2F)C1 [Compound 48, (S)-1-(3-((2-(5-chloro-1H-pyrrolo[2,3-b]pyridin-3-yl)-5-fluoropyrimidin-4-ylamino)methyl)piperidin-1-yl)-2-(1H-tetrazol-1-yl)ethanone] | > 20
O=C(Cn1ccnc1)N1CCC[C@@H](CNc2nc(-c3c[nH]c4ncc(Cl)cc34)ncc2F)C1 [Compound 50, (S)-1-(3-((2-(5-chloro-1H-pyrrolo[2,3-b]pyridin-3-yl)-5-fluoropyrimidin-4-ylamino)methyl)piperidin-1-yl)-2-(1H-imidazol-1-yl)ethanone] | > 20
O=C(O)CCCC(=O)N1CCC[C@H](CNc2nc(-c3c[nH]c4ncc(Cl)cc34)ncc2F)C1 [Compound 53, (R)-5-(3-((2-(5-chloro-1H-pyrrolo[2,3-b]pyridin-3-yl)-5-fluoropyrimidin-4-ylamino)methyl)piperidin-1-yl)-5-oxopentanoic acid] | 5 to 20
O=C(O)COCC(=O)N1CCC[C@H](CNc2nc(-c3c[nH]c4ncc(Cl)cc34)ncc2F)C1 [Compound 54, (R)-2-(2-(3-((2-(5-chloro-1H-pyrrolo[2,3-b]pyridin-3-yl)-5-fluoropyrimidin-4-ylamino)methyl)piperidin-1-yl)-2-oxoethoxy)ethanoic acid] | 5 to 20
O=C(c1ccccc1F)N1CCC[C@H](CNc2nc(-c3c[nH]c4ncc(Cl)cc34)ncc2F)C1 [Compound 58, (R)-(3-((2-(5-chloro-1H-pyrrolo[2,3-b]pyridin-3-yl)-5-fluoropyrimidin-4-ylamino)methyl)piperidin-1-yl)(2-fluorophenyl)methanone] | < 5
CC(=O)c1cccc(NC(=O)N2CCC[C@H](CNc3nc(-c4c[nH]c5ncc(Cl)cc45)ncc3F)C2)c1 [Compound 77, (R)-3-((2-(5-chloro-1H-pyrrolo[2,3-b]pyridin-3-yl)-5-fluoropyrimidin-4-ylamino)methyl)-N-(3-ethanoylphenyl)piperidine-1-carboxamide] | 5 to 20
O=C(Nc1cccc(C(F)(F)F)c1)N1CCC[C@H](CNc2nc(-c3c[nH]c4ncc(Cl)cc34)ncc2F)C1 [Compound 79, (R)-3-((2-(5-chloro-1H-pyrrolo[2,3-b]pyridin-3-yl)-5-fluoropyrimidin-4-ylamino)methyl)-N-(3-(trifluoromethyl)phenyl)piperidine-1-carboxamide] | 5 to 20
O=C(O)c1nccnc1C(=O)N1CCC[C@H](CNc2nc(-c3c[nH]c4ncc(Cl)cc34)ncc2F)C1 [Compound 82, (R)-3-(3-((2-(5-chloro-1H-pyrrolo[2,3-b]pyridin-3-yl)-5-fluoropyrimidin-4-ylamino)methyl)piperidine-1-carbonyl)pyrazine-2-carboxylic acid] | > 20
O=C(O)[C@H]1C[C@H]1C(=O)N1CCC[C@H](CNc2nc(-c3c[nH]c4ncc(Cl)cc34)ncc2F)C1 [Compound 83, (1S,2R)-2-((R)-3-((2-(5-chloro-1H-pyrrolo[2,3-b]pyridin-3-yl)-5-fluoropyrimidin-4-ylamino)methyl)piperidine-1-carbonyl)cyclopropanecarboxylic acid] | > 20
O=C(c1c(Cl)cccc1Cl)N1CCC[C@H](CNc2nc(-c3c[nH]c4ncc(Cl)cc34)ncc2F)C1 [Compound 96, (R)-(3-((2-(5-chloro-1H-pyrrolo[2,3-b]pyridin-3-yl)-5-fluoropyrimidin-4-ylamino)methyl)piperidin-1-yl)(2,6-dichlorophenyl)methanone] | 5 to 20
O=C(c1ccc2c(c1)OCO2)N1CCC[C@H](CNc2nc(-c3c[nH]c4ncc(Cl)cc34)ncc2F)C1 [Compound 103, (R)-benzo[d][1,3]dioxol-5-yl(3-((2-(5-chloro-1H-pyrrolo[2,3-b]pyridin-3-yl)-5-fluoropyrimidin-4-ylamino)methyl)piperidin-1-yl)methanone] | < 5
CC(C)(C)OC(=O)N1CCC[C@H](CNc2nc(-c3c[nH]c4ncc(N)cc34)ncc2F)C1 [Compound 114, (R)-tert-butyl 3-((2-(5-amino-1H-pyrrolo[2,3-b]pyridin-3-yl)-5-fluoropyrimidin-4-ylamino)methyl)piperidine-1-carboxylate] | > 20
N[C@@H]1CCCC[C@H]1Nc1nc(-c2c[nH]c3ncc(Cl)cc23)ncc1Cl [Compound 115, (1R,2R)—N1-(5-chloro-2-(5-chloro-1H-pyrrolo[2,3-b]pyridin-3-yl)pyrimidin-4-yl)cyclohexane-1,2-diamine] | > 20
Cc1cnc(-c2c[nH]c3ncc(Cl)cc23)nc1NC1CCCCC1N (stereo not drawn) [Compound 116, N1-(2-(5-chloro-1H-pyrrolo[2,3-b]pyridin-3-yl)-5-methylpyrimidin-4-yl)cyclohexane-1,2-diamine] | > 20

Same assay, conditions: Influenza A virus, PR/8, MDCK; read-out: IC50 (mean all)

SMILES | IC50 [µM]
COC(=O)c1ccc(OC(=O)N2CCC[C@H](CNc3nc(-c4c[nH]c5ncc(Cl)cc45)ncc3F)C2)cc1 [Compound 63, (R)-4-(methoxycarbonyl)phenyl 3-((2-(5-chloro-1H-pyrrolo[2,3-b]pyridin-3-yl)-5-fluoropyrimidin-4-ylamino)methyl)piperidine-1-carboxylate] | > 20
Cc1ccc(OC(=O)N2CCC[C@H](CNc3nc(-c4c[nH]c5ncc(Cl)cc45)ncc3F)C2)cc1 [Compound 71, (R)-p-tolyl 3-((2-(5-chloro-1H-pyrrolo[2,3-b]pyridin-3-yl)-5-fluoropyrimidin-4-ylamino)methyl)piperidine-1-carboxylate] | 5 to 20
O=C(Oc1cccc(C(F)(F)F)c1)N1CCC[C@H](CNc2nc(-c3c[nH]c4ncc(Cl)cc34)ncc2F)C1 [Compound 72, (R)-3-(trifluoromethyl)phenyl 3-((2-(5-chloro-1H-pyrrolo[2,3-b]pyridin-3-yl)-5-fluoropyrimidin-4-ylamino)methyl)piperidine-1-carboxylate] | 5 to 20
O=C(Oc1ccc(F)cc1)N1CCC[C@H](CNc2nc(-c3c[nH]c4ncc(Cl)cc34)ncc2F)C1 [Compound 73, (R)-4-fluorophenyl 3-((2-(5-chloro-1H-pyrrolo[2,3-b]pyridin-3-yl)-5-fluoropyrimidin-4-ylamino)methyl)piperidine-1-carboxylate] | 5 to 20
